Reference: patent US11084783B2, “O-alkyl-benzylideneguanidine derivatives and therapeutic use for the treatment of disorders associated with an accumulation of misfolded proteins” (INFLECTIS BIOSCIENCE, priority 2014, dated 2021)

Tests used:
Format in all cases: cell-based
HeLa cells = assay: Cytoprotection from ER stress (tunicamycin), cell viability by WST-8; parameters: key to Cytoprotection from ER stress compared to guanabenz: +: lower cytoprotective effect compared to Guanabenz; ++: similar cytoprotective effect compared to Guanabenz; +++: higher cytoprotective effect compared to Guanabenz; details: HeLa cells, 6 hour exposure to tunicamycin 5 μg/mL, compounds 0.5-10 μM, viability 48 h or 72 h
Excerpt: Cytoprotection against ER stress can be measured by a suitable assay. For example, cytoprotection can be measured in HeLa cells in which ER stress is elicited by the addition of media containing tunicamycin, a mixture of homologous nucleoside antibiotics that inhibits the UDP-HexNAc: polyprenol-P HexNAc-1-P family of enzymes and is used to induce unfolded protein response. Cell viability can be detected in the presence and absence of inhibitor compounds after a set period of time, by measuring the reduction of WST-8 into formazan using a standard cell viability kit (such as Cell Viability Counting Kit-8 from Dojindo). Cytoprotection from ER stress is measured in terms of the percentage increase in viable cells (relative to control) after ER stress. Further details of a suitable assay are set forth in the accompanying Examples section.
This assay is described in Tsaytler et al. (Science 2011). HeLa Cells were cultured in Eagle's Minimum Essential Medium (EMEM) supplemented with Glutamine, Sodium Pyruvate, Non-Essential Amino Acids, Penicillin and Streptomycin containing 10% Foetal Bovine Serum (FBS), at 37° C. in 5% CO2 atmosphere. Cells were plated in 96 well plates at a density of 17,000 cells/mL the day before the treatment. ER stress was elicited by addition of 5 μg/mL tunicamycin (Sigma-Aldrich) together with PPP1R15A inhibitors (0.5-10 μM). Media were changed 6h later with fresh media and the cytoprotection was maintained by the addition of PPP1R15A inhibitors (0.5-10 μM). Cell viability was assessed by measuring the reduction of WST-8 into formazan using Cell Counting Kit-8 (Sigma) according to the supplier's recommendation, 48 h or 72h after tunicamycin treatment. Cytoprotection from ER stress is measured in terms of cytoprotective potency effect compared to the reference compound Guanabenz (Tsaytler et al., Science 2011) after ER stress: • ‘+’ no cytoprotective effect; • ‘+’ lower cytoprotective effect compared to Guanabenz; • ‘++’ similar cytoprotective effect compared to Guanabenz; • ‘+++’ higher cytoprotective effect compared to Guanabenz.
Table 1 summarizes the results of cytoprotective effect of different compounds of the invention, compared to guanabenz, after the stress induced by a 6 hour exposure of tunicamycin.

human alpha2A receptor = molecular target: T1, human alpha2A receptor (Homo sapiens, UniProt P08913); assay: Functional GPCR assay for adrenergic α2A receptor (CellKey detection method); details: agonist activity, CHO cells expressing human alpha2A receptor, impedance (CellKey); read-out: Functional adrenergic alpha2 receptor assay EC50
T1 construct: CHO cells endogenously expressing human alpha2A receptor; endogenous in cells; host or cells: CHO cells
T1 sequence (P08913 1-465): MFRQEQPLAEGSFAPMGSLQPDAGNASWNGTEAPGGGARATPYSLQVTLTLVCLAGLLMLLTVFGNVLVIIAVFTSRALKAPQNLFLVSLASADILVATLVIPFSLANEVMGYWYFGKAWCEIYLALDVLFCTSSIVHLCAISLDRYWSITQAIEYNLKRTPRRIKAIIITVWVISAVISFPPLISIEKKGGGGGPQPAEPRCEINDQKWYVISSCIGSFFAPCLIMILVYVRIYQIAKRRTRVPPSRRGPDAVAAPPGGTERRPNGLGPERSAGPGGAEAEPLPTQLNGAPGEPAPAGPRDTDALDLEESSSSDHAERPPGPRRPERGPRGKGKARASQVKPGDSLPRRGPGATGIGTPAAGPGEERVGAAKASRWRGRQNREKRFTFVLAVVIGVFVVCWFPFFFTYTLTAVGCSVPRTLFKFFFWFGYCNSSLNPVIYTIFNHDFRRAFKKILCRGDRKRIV
Method: The agonist activity of compounds was evaluated on CHO cells […] expressing human alpha2A receptor and was determined by measuring their effects on impedance modulation using the CellKey detection method. Cells were seeded onto 96-well plate at density of 6×10^4 cells/well in HBSS buffer (Invitrogen)+20 mM HEPES (Invitrogen) with 0.1% BSA and are allowed to equilibrate for 60 min at 28° C. before the start of the experiment. Plates were placed onto the system and measurements were made at a temperature of 28° C. Solutions were added simultaneously to all 96 wells using an integrated fluidics system: HBSS (basal control), reference agonist at 100 nM (stimulated control), reference agonist (EC50 determination) or the test compounds. Impedance measurements are monitored for 10 minutes after ligand addition. The standard reference agonist is epinephrine, which is tested in each experiment at several concentrations to generate a concentration-response curve from which its EC50 value is calculated.
Dose-response data from test compounds were analysed with Hill software using non-linear regression analysis of the concentration-response curves generated with mean replicate values using Hill equation curve fitting.

[1] = tested on: mouse embryonic fibroblasts lipofected with poly I:C; assay: In vitro inflammation/infection model: poly I:C induced mouse embryonic fibroblasts; details: 25 μM, 6h, IFN-beta ELISA in culture supernatants
Method: Mouse Embryonic Fibroblasts (MEFs) were lipofected with poly I:C and treated with […] compounds of the invention (25 μM) for 6h. After 6h of culture, elF2alpha-phosphorylation (elF2a-P) and PPP1R15A (GADD34) expression was monitored by western blotting, while type-1 Interferon(IFN)-beta production was quantified in culture supernatants by ELISA. Control (nt) and poly I:C/DMSO are respectively negative and positive controls. Poly I:C (polyinosinic:polycytidylic acid or polyinosinic-polycytidylic acid sodium salt) is an immunostimulant used to simulate viral infections. Poly I:C which is structurally similar to double-stranded RNA, is known to interact with toll-like receptor 3 which is expressed in the intracellular compartments of B-cells and dendritic cells. Guanabenz (25 μM) was used as reference inhibitory compound.
MEFs were cultured in DMEM, 10% FCS (HyClone, Perbio), 100 units/ml penicillin, 100 μg/ml streptomycin, 2 mM glutamine, 1× MEM non-essential amino acids and 50 μM 2-mercaptoethanol. MEFS were treated for the indicated time with 10 μg/ml poly I:C (InvivoGen) in combination with lipofectamine 2000 (Invitrogen).
Cells were lysed in 1% Triton X-100, 50 mM Hepes, 10 mM NaCl, 2.5 mM MgCl2, 2 mM EDTA, 10% glycerol, supplemented with Complete Mini Protease Inhibitor Cocktail Tablets (Roche). Protein quantification was performed using the BCA Protein Assay (Pierce). 25-50 μg of Triton X-100-soluble material was loaded on 2%-12% gradient or 8% SDS-PAGE before immunoblotting and chemi-luminescence detection (SuperSignal West Pico Chemi-luminescent Substrate, Pierce). Rabbit polyclonal antibodies recognizing GADD34 (C-19) were from Santa Cruz Biotechnology and anti-elF2alpha[pS^52] were from Invitrogen.
IFN-beta quantification in culture supernatant was performed using the Mouse Interferon Beta ELISA kit (PBL Interferon Source) according to manufacturer instructions.
Normal response of MEFs to poly I:C is characterized by PPP1R15A expression, increase in elF2alpha-P (variable in time and related to the levels PPP1R15A expression) mediated by PKR activation and type-I IFN production (range 500 to 700 pg/ml). Knock out PPP1R15A MEFs are unable to produce this cytokine in response to poly I:C.
The potency of compounds of the invention to inhibit PPP1R15A was evaluated by measuring the increase of elF2alpha phosphorylation, the decrease of PPP1R15A expression due to its own pharmacological inhibition resulting in general protein synthesis inhibition and type-I IFN production.

[2] = tested on: rotenone injured primary mesencephalic rat neurons; assay: In vitro Parkinson's disease model: rotenone injured primary mesencephalic rat neurons; details: rotenone 10 nM, 24 hours; total number of TH positive neurons
Method: Rat dopaminergic neurons were cultured as described by Schinelli et al., (1988 J. Neurochem 50 pp1900-07) and Visanji et al., (2008 FASEB J. 22(7) pp2488-97). Briefly, the midbrains obtained from 15-day old rat embryos (Janvier Labs, France) were dissected under a microscope. The embryonic midbrains were removed and placed in ice-cold medium of Leibovitz (L15, Pan Biotech, Batch: 9310614) containing 2% of Penicillin-Streptomycin (PS, Pan Biotech, Batch: 1451013) and 1% of bovine serum albumin (BSA, Pan Biotech, Batch: h140603). The ventral portion of the mesencephalic flexure, a region of the developing brain rich in dopaminergic neurons, was used for the cell preparations.
The midbrains were dissociated by trypsinisation for 20 min at 37° C. (Trypsin 0.05% EDTA 0.02%, PanBiotech, Batch: 5890314). The reaction was stopped by the addition of Dulbecco's modified Eagle's medium (DMEM, PanBiotech, Batch: 1300714) containing DNAase I grade II (0.1 mg/ml, PanBiotech, Batch: H140508) and 10% of foetal calf serum (FCS, Gibco, Batch: 41Q7218K). Cells were then mechanically dissociated by 3 passages through a 10 ml pipette. Cells were then centrifuged at 180×g for 10 min at +4° C. on a layer of BSA (3.5%) in L15 medium. The supernatant was discarded and the cell pellets were re-suspended in a defined culture medium consisting of Neurobasal (Invitrogen, Batch: 1636133) supplemented with B27 (2%, Invitrogen, Batch: 1660670), L-glutamine (2 mM, PanBiotech, Batch: 8150713) and 2% of PS solution and 10 ng/ml of Brain-derived neurotrophic factor (BDNF, PanBiotech, Batch: H140108) and 1 ng/ml of Glial-Derived Neurotrophic Factor (GDNF, Pan Biotech, Batch: H130917). Viable cells were counted in a Neubauer cytometer using the trypan blue exclusion test. The cells were seeded at a density of 40 000 cells/well in 96 well-plates pre-coated with poly-L-lysine (Corning Biocoat, Batch: 6614022) and maintained in a humidified incubator at 37° C. in 5% CO2/95% air atmosphere. Half of the medium was changed every 2 days with fresh medium.
On day 6 of culture, the medium was removed and fresh medium was added, without or with rotenone (Sigma, Batch: 021M2227V) at 10 nM diluted in control medium, 3 wells per condition were assessed. […]
The immunolabeled cultures were automatically examined with ImageXpress (Molecular device USA). For each condition, 20 automatically fields per well (representing ˜80% of the total surface of the well) from 3 wells were analyzed. The total number of TH neurons was automatically analyzed using Custom module editor (Molecular Devices, USA). […] All values were expressed as mean +/−SEM (s.e. mean) of the 1 culture (n=3 wells per condition per culture).

| Compound | Cytoprotection from ER stress compared to guanabenz (HeLa cells) | EC50 (human alpha2A receptor) | prevention of type-I IFN production (FIG. 9) [1] | protection of rotenone injured primary mesencephalic rat neurons (FIG. 3) [2] |
| --- | --- | --- | --- | --- |
| CCCO/N=C(\N)N/N=C/c1ccncc1Cl [Compound 23, 2-[(3-chloropyridin-4-yl)methylidene]-N-propoxyhydrazinecarboximidamide] | ++ |  |  |  |
| CC(C)=CCONC(=N)N/N=C/c1ccccc1Cl [Compound 14, 2-(2-chlorobenzylidene)-N′-[(3-methylbut-2-en-1-yl)oxy]hydrazinecarboximidamide] | ++ |  |  |  |
| CCCO/N=C(\N)N/N=C/c1c(Cl)cccc1Cl [Compound 21, 2-(2,6-dichlorobenzylidene)-N-propoxyhydrazinecarboximidamide] | ++ |  |  |  |
| N/C(=N\OCCO)N/N=C/c1ccccc1Cl [Compound 6, 2-(2-chlorobenzylidene)-N′-(2-hydroxyethoxy)hydrazinecarboximidamide] | ++ | > 33.3 µM | prevent type-I IFN production |  |
| CCOCCONC(=N)N/N=C/c1ccccc1Cl [Compound 13, 2-(2-chlorobenzylidene)-N-(2-ethoxyethoxy)hydrazinecarboximidamide] | ++ | > 33.3 µM |  |  |
| CCSCCONC(=N)N/N=C/c1ccccc1Cl [Compound 15, 2-(2-chlorobenzylidene)-N-[2-(ethylsulfanyl)ethoxy]hydrazinecarboximidamide] | ++ | > 33.3 µM |  |  |
| CS(=O)(=O)CCCO/N=C(\N)N/N=C/c1ccccc1Cl [Compound 4, 2-(2-chlorobenzylidene)-N′-[3-(methylsulfonyl)propoxy]hydrazinecarboximidamide] | ++ |  |  |  |
| CCCO/N=C(\N)N/N=C/c1c(F)cccc1Cl [Compound 19, 2-(2-chloro-6-fluorobenzylidene)-N′-propoxyhydrazinecarboximidamide] | +++ |  |  |  |
| C=CCO/N=C(\N)N/N=C/c1ccccc1Cl [Compound 5, 2-(2-chlorobenzylidene)-N′-(prop-2-en-1-yloxy)hydrazinecarboximidamide] | + |  |  | dose dependent protection |
